The results in this text go back to patent US20240034733A1, “KRAS G12D INHIBITORS” (Mirati Therapeutics, Inc., priority 2020, published 2024).

Assay [1] concerns the target T1, KRas G12D (Homo sapiens, UniProt P01116, G12D).
T1 construct: Avidin-tag (so in the source)
Description: KRas G12D Surface Plasmon Resonance (SPR) Binding Assay. The following applies: Biacore T200, 20° C., 1:1 binding model, read-out: KD (nM), Determination of KRas G12D KD. As for the experimental part:
This Example illustrates that exemplary compounds of the present invention bind to KRas G12D as measured by surface plasmon resonance (SPR).
Briefly, 1 L of 1.05×HBS-Mg buffer (262.5 mM BioUltra Hepes, pH 7.5, 157.5 mM NaCl, 105 mM MgCl2, 0.525 mM TCEP, 0.0305% Brij-35) was prepared and filter sterilized using a 0.22 μm bottle top filter. Approximately 50 mL of 1.05×HBS-Mg buffer was removed and saved for future dilutions. A 50 mL aliquot of DMSO (Sigma Aldrich DMSO Lot. #SHBK2079) was added and continued to stir for 10 minutes, creating the final 1.0×HBS-Mg buffer (250 mM BioUltra Hepes pH 7.5, 150 mM NaCl, 100 mM MgCl2, 0.5 mM TCEP, 0.03% Brij-35).
Biacore T200 instrument was primed using 1.0×HBS-Mg buffer before docking a GE Streptavidin (SA) chip and then primed two additional times prior to beginning the immobilization step. All immobilized protein mixtures were created using 3-5 mg/mL Biotinylated Avidin-tagged KRAS protein using the following immobilization settings: SA chip type, 1 flow cells per cycle, 720 second contact time, and 5 μL/min flow rate. Normalization of the detector was also performed during the immobilization step using the GE BiaNormalize solution.
All compounds were diluted to 10 mM in 100% DMSO prior to being diluted 20× in 1.05× buffer. Another 10× dilution was created using 1.0× buffer prior to performing a series of 3×dilutions to create a compound concentration curve using the following assay settings: 20° C. analysis temperature, General Settings=10 Hz data collection rate and multi-detection; Assay Steps=all set to LMW kinetics; Cycle Types=LMW kinetics (60 s contact time, 120 s dissociation time, 100 μL/min flow rate, extra wash after injection with 50% DMSO, flow path 1, 2, 3, 4); Flow path detection=2−1, 4−3). Data evaluation was performed using the Biacore T200 Evaluation software and data fit to 1:1 binding model.
In general terms: Surface plasmon resonance follows binding to a sensor surface in real time, without labels.

The target of assay [2] is T2, GDP-loaded recombinant human KRAS G12D (Homo sapiens, UniProt P01116, G12D).
T2 construct: corresponding to amino acids 1:169, produced at Array BioPharma; biotin (biotinylated); made in house
T2 sequence (P01116 1-169 isoform P01116-2 G12D): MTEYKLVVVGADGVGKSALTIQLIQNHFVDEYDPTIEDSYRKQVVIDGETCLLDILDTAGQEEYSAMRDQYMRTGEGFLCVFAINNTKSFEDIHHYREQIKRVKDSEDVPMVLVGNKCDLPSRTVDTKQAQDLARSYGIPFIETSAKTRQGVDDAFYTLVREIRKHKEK
Description: KRas G12D Binding Assay (TR-FRET displacement of Cy5 labelled tracer). The following applies: 60 minute incubation at 22° C. As for the experimental part:
This Example illustrates that exemplary compounds of the present invention bind to KRas G12D and are capable of displacing a labeled tracer ligand occupying the KRas G12D binding site.
The ability of a compound to bind to KRAS G12D was measured using a TR-FRET displacement assay. Biotinylated GDP-loaded recombinant human KRAS G12D (corresponding to amino acids 1:169, produced at Array BioPharma) was incubated with a custom-made Cy5 labelled tracer, europium labelled streptavidin and compound (2% DMSO final) in buffer (50 mM HEPES [pH 7.5], 5 mM MgCl2, 0.005% Tween-20 & 1 mM DTT). After a 60 minute incubation at 22° C., the reaction was measured using a PerkinElmer EnVision multimode plate reader via TR-FRET dual wavelength detection, and the percent of control (POC) calculated using a ratiometric emission factor. […] The POC values were fit to a 4-parameter logistic curve and the IC50 value was determined as the concentration where the curve crosses 50 POC.
For orientation: TR-FRET usually uses a lanthanide donor and a delayed reading to cut background.

The subject of assay [3] is KRas G12D-mediated phosphorylation of ERK. The assay can be described thus: Inhibition of KRas G12D-mediated phosphorylation of ERK in AGS cells. It is filed as cell-based. The following applies: Homo sapiens; AGS cells expressing G12D, 3 hours, phospho-ERK normalized to GAPDH. As for the experimental part: AGS cells (ATCC CRL-1739) expressing G12D were grown in DMEM medium supplemented with 10% fetal bovine serum, 10 mM HEPES, and Penicillin/Streptomycin. Cells were plated in tissue culture treated 96 well plates at a density of 40,000 cells/well and allowed to attach for 12-14 hours. Diluted compounds were then added in a final concentration of 0.5% DMSO. After 3 hours, the medium was removed, 150 μl of 4.0% formaldehyde was added and the plates incubated at room temperature for 20 minutes. The plates were washed with PBS, and permeabilized with 150p of ice cold 100% methanol for 10 minutes. Non-specific antibody binding to the plates was blocked using 100 μL Licor blocking buffer (Li-Cor Biotechnology, Lincoln NE) for 1 hour at room temperature.
The amount of phosho-ERK was determined using an antibody specific for the phosphorylated form of ERK and compared to the amount of GAPDH. Primary antibodies used for the detection were added as follows: Phospho-ERK (Cell Signaling cs-9101) diluted 1:500 and GAPDH (Millipore MAB374) diluted 1:5000 in Licor block+0.05% Tween 20. The plates were incubated for 2 hours at room temperature. The plates were washed with PBS+0.05% Tween 20.
Secondary antibodies used to visualize primary antibodies were added as follows: Anti-rabbit-680 diluted 1:1000 and Anti-mouse-800 diluted 1:1000 both in Licor block+0.05% Tween20, and were incubated for 1 hour at room temperature. The plates were washed with PBS +0.05% Tween 20. A 100 μl aliquot of PBS was added to each well and the plates were read on a Li-Cor Odyssey CLX plate reader phospho-ERK (Thr202/Tyr204) signal was normalized to the GAPDH signal for each well and percent of DMSO control values were calculated. IC50 values were generated using a 4-parameter fit of the dose response curve

As a reminder, the Kd is the free concentration of one partner at which half of the binding sites on the other are occupied at equilibrium, for simple one-to-one binding. As a reminder, the IC50 is the concentration at which inhibition is half-maximal.

T1 sequence (P01116 1-188 isoform P01116-2 G12D): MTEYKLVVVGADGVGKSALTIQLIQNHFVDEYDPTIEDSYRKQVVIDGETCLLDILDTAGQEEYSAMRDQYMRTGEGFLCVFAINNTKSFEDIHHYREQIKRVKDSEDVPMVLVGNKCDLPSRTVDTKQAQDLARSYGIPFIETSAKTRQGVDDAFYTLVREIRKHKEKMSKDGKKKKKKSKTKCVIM

For `Fc1c(-c2cccc3cccc(Cl)c23)ccc2c(N3C[C@H]4CC[C@@H](C3)N4)nc(OCC34CCCN3CCC4)nc12` [Example 2, 4-((1R,5S)-3,8-diazabicyclo[3.2.1]octan-3-yl)-7-(8-chloronaphthalen-1-yl)-8-fluoro-2-((tetrahydro-1H-pyrrolizin-7a(5H)-yl)methoxy)quinazoline], the Kd in assay [1] turned out to be 8 nM. Also, the figures for the IC50 in assay [2] and in assay [3] were 6.1 nM and 4540 nM, respectively.

As to `CN1CCC[C@H]1COc1nc(N2C[C@H]3CC[C@@H](C2)N3)c2cc(Cl)c(-c3cc(O)cc4ccccc34)c(F)c2n1` [Example 7, 4-(4-((1R,5S)-3,8-diazabicyclo[3.2.1]octan-3-yl)-6-chloro-8-fluoro-2-(((S)-1-methylpyrrolidin-2-yl)methoxy)quinazolin-7-yl)naphthalen-2-ol], the Kd in assay [1] amounted to 9 nM. Further, the results for the IC50 in assay [2] and in assay [3] were 11.2 nM and 1420 nM, respectively.

Take `CN1CCC[C@H]1COc1nc(N2C[C@H]3CC[C@@H](C2)N3)c2ccc(-c3cc(O)cc4ccccc34)c(F)c2n1` [Example 8, 4-(4-((1R,5S)-3,8-diazabicyclo[3.2.1]octan-3-yl)-8-fluoro-2-(((S)-1-methylpyrrolidin-2-yl)methoxy)quinazolin-7-yl)naphthalen-2-ol]: in assay [1], the Kd was 3 nM. In addition, the IC50 came to 4.3 nM in assay [2] and 271 nM in assay [3].

In the case of `CN1CCC[C@H]1COc1nc(N2C[C@H]3CC[C@@H](C2)N3)c2ccc(-c3cc(O)cc4ccccc34)cc2n1` [Example 10, 4-(4-((1R,5S)-3,8-diazabicyclo[3.2.1]octan-3-yl)-2-(((S)-1-methylpyrrolidin-2-yl)methoxy)quinazolin-7-yl)naphthalen-2-ol], the Kd in assay [1] came out at 19 nM. Also, the IC50 stood at 22.9 nM in assay [2] and 5660 nM in assay [3].

Regarding `CN1CCC[C@H]1COc1nc(N2CC3CCC2CN3)c2cc(Cl)c(-c3cc(O)cc4ccccc34)c(F)c2n1` (stereo partly drawn) [Example 11, 4-((7R)-4-(2,5-diazabicyclo[2.2.2]octan-2-yl)-6-chloro-8-fluoro-2-(((S)-1-methylpyrrolidin-2-yl)methoxy)quinazolin-7-yl)naphthalen-2-ol], the Kd in assay [1] amounted to 16 nM. The IC50 in assay [2] worked out at 10.4 nM; in assay [3], 2840 nM.

Regarding `CN1CCC[C@H]1COc1nc(N2CCNC3(CC3)C2)c2ccc(-c3cc(O)cc4ccccc34)c(F)c2n1` [Example 12, (S)-4-(8-fluoro-2-((1-methylpyrrolidin-2-yl)methoxy)-4-(4,7-diazaspiro[2.5]octan-7-yl)quinazolin-7-yl)naphthalen-2-ol], in assay [1], the Kd was determined as 110 nM. In assay [3], this compound returned an IC50 of 5560 nM.

In the case of `CN1CCC[C@H]1COc1nc(N2C[C@H]3CC[C@@H](C2)N3)c2ccc(-c3cccc4ccc(F)cc34)c(F)c2n1` [Example 13, 4-((1R,5S)-3,8-diazabicyclo[3.2.1]octan-3-yl)-8-fluoro-7-(7-fluoronaphthalen-1-yl)-2-(((S)-1-methylpyrrolidin-2-yl)methoxy)quinazoline], in assay [1], the Kd worked out at 78 nM. Further, the IC50 was 61.9 nM in assay [2] and 5560 nM in assay [3].

Turning to `CN1CCC[C@H]1COc1nc(N2CC3CCC2CN3)c2cnc(-c3cc(O)cc4ccccc34)c(F)c2n1` (stereo partly drawn) [Example 14, 4-(4-(2,5-diazabicyclo[2.2.2]octan-2-yl)-8-fluoro-2-(((S)-1-methylpyrrolidin-2-yl)methoxy)pyrido[4,3-d]pyrimidin-7-yl)naphthalen-2-ol], in assay [1], the Kd is 36 nM. Besides, the IC50 stood at 30.8 nM in assay [2] and 8610 nM in assay [3].

On to `CN1CCC[C@H]1COc1nc(N2C[C@H]3CC[C@@H]2CN3)c2cnc(-c3cc(O)cc4ccccc34)c(F)c2n1` [Example 15, 4-(4-((1R,4R)-2,5-diazabicyclo[2.2.2]octan-2-yl)-8-fluoro-2-(((S)-1-methylpyrrolidin-2-yl)methoxy)pyrido[4,3-d]pyrimidin-7-yl)naphthalen-2-ol], for which, in assay [1], the Kd turned out to be 93 nM. This compound registered an IC50 in assay [3] of 7120 nM.

Regarding `CN1CCC[C@H]1COc1nc2c(c(N3CC4CCC3CN4)n1)CCN(c1cc(O)cc3ccccc13)C2` (stereo partly drawn) [Example 16, 4-(4-(2,5-diazabicyclo[2.2.2]octan-2-yl)-2-(((S)-1-methylpyrrolidin-2-yl)methoxy)-5,8-dihydropyrido[3,4-d]pyrimidin-7(6H)-yl)naphthalen-2-ol], the Kd in assay [1] amounted to 300 nM. Further, the IC50 in assay [2] turned out to be 152 nM; in assay [3], 5950 nM.

Regarding `CN1C[C@H](F)C[C@H]1COc1nc(N2C[C@H]3CC[C@@H](C2)N3)c2ccc(-c3cc(O)cc4ccccc34)c(F)c2n1` [Example 29, 4-(4-((1R,5S)-3,8-diazabicyclo[3.2.1]octan-3-yl)-8-fluoro-2-(((2S,4R)-4-fluoro-1-methylpyrrolidin-2-yl)methoxy)quinazolin-7-yl)naphthalen-2-ol], in assay [1], the Kd is 5 nM. The IC50 in assay [2] is 1.8 nM; in assay [3], 779 nM.

Turning to `Cc1cc2[nH]ncc2c(-c2ccc3c(N4C[C@H]5CC[C@@H](C4)N5)nc(OC[C@@H]4CCCN4C)nc3c2F)c1C` [Example 30, 4-((1R,5S)-3,8-diazabicyclo[3.2.1]octan-3-yl)-7-(5,6-dimethyl-1H-indazol-4-yl)-8-fluoro-2-(((S)-1-methylpyrrolidin-2-yl)methoxy)quinazoline], the Kd in assay [1] turned out to be 152 nM. The values for the IC50 in assay [2] and in assay [3] were 57 nM and 5090 nM, respectively.

Regarding `CN1CC(F)(F)C[C@H]1COc1nc(N2C[C@H]3CC[C@@H](C2)N3)c2ccc(-c3cc(O)cc4ccccc34)c(F)c2n1` [Example 31, 4-(4-((1R,5S)-3,8-diazabicyclo[3.2.1]octan-3-yl)-2-(((S)-4,4-difluoro-1-methylpyrrolidin-2-yl)methoxy)-8-fluoroquinazolin-7-yl)naphthalen-2-ol], in assay [1], the Kd was 121 nM. For the same compound, the IC50 is 297 nM in assay [2] and 8500 nM in assay [3].
